The values below come from article PMC11571215, “Optimization of Antiproliferative Properties of Triimine Copper(II) Complexes” (Journal of Medicinal Chemistry, 2024).

The test system of assay [1] is normal human primary dermal fibroblasts. Also on record: method as in PMID 29688241. The conditions noted are these: 48 h; previously published complex; cited from earlier work.
For assay [2], the system named is A2780 cells (ovarian carcinoma). Further details: method as in PMID 29688241. The conditions noted are these: previously published complex, cited from earlier work.
In assay [3] the test system is HCT116 cells (colorectal carcinoma). Further details: method as in PMID 29688241. The conditions noted are these: previously published complex, cited from earlier work.
For assay [4], the system named is HCT116-DoxR cells (doxorubicin resistant colorectal carcinoma). Description: MTS cell viability assay, HCT116-DoxR 2D. In kind it is cell-based, human. To be noted: for IC50: 48 h of exposure. As for the experimental part: (§1) The antiproliferative effect of the Cu(II) complexes in tumor and healthy cell lines was assessed through the MTS assay, a colorimetric method that is widely used to evaluate cellular viability, specifically mitochondrial viability.[53],[54] Cellular viability was determined after 48 h exposure to a concentration range (0.1–50 μM) of Cu(II) complexes in three tumor cell lines. […] Additionally, the viability of healthy primary dermal fibroblasts was performed as a comparison of the complexes’ antiproliferative effects in normal cells.
(§2) Cellular viability assays were performed using HCT116, HCT116-DoxR, and A2780 cancer cell lines as well as normal human primary fibroblasts. Cells were seeded at a density of 0.75 × 10^5 cells/mL in 96-well plates and incubated at 37 °C with 5% (v/v) CO2 for 24 h. After this incubation period, the copper complexes were accurately weighed and immediately dissolved in 100% (v/v) dimethyl sulfoxide (DMSO). Subsequently, the complexes were diluted to the final concentration using a cell culture medium. The culture medium in each well was replaced with fresh medium containing varying concentrations of the complexes (ranging from 0.01 to 50 μM). Negative controls contained culture medium with 0.1% (v/v) DMSO, and positive controls contained 0.4 μM Dox.
(§3) After an additional 48 h of incubation under the same conditions, cellular viability was assessed using the CellTiter 96 Aqueous One Solution Cell Proliferation Assay kit (Promega, Madison, USA). Metabolically active cells contain mitochondrial dehydrogenases that can reduce 3-(4,5-dimethylthiazol-2-yl)-5-(3-carboxymethoxyphenyl)-2-(4-sulfophenyl)-2H-tetrazolium, the inner salt (MTS) to formazan. The absorbance of formazan, measured at 490 nm in a microplate reader (Tecan Infinite M200, Tecan, Männedorf, Switzerland), is directly proportional to the number of viable cells.[104]
(§4) The cell viability versus concentration graphics were analyzed using Prism 8 software (GraphPad) to determine the half-maximal inhibitory concentration (IC50) of each complex for the respective cell line. Additionally, the selective index (SI) for each complex was calculated by dividing the IC50 of human fibroblasts by the IC50 values of the tested cancer cell lines.
Background: Formazan colour is commonly taken as a measure of viable cells.

Assay [5] relates to HCT116 cells (colorectal carcinoma). Description: MTS cell viability assay, HCT116 2D. In kind it is cell-based, human. As for the experimental part:
as §1, §2, §3, §4

Assay [6] concerns A2780 cells (ovarian carcinoma). Description: MTS cell viability assay, A2780. It is filed as cell-based, human. On the procedure: as §1, §2, §3, §4
Assay [7] relates to normal human primary dermal fibroblasts. The assay is described as follows: MTS cell viability assay, normal fibroblasts. It is filed as cell-based. The conditions noted are these: 48 h of exposure. On the procedure: as §1, §2
After an additional 48 h of incubation under the same conditions, cellular viability was assessed using the CellTiter 96 Aqueous One Solution Cell Proliferation Assay kit (Promega, Madison, USA). […] The absorbance of formazan, measured at 490 nm in a microplate reader (Tecan Infinite M200, Tecan, Männedorf, Switzerland), is directly proportional to the number of viable cells.[104]
as §4

In assay [8] the test system is HCT116-DoxR cells (doxorubicin resistant colorectal carcinoma). Further details: method as in PMID 37311060. To be noted: previously determined; read-out: IC50 for the HCT116-DoxR cell line; cited from earlier work.
Assay [9] concerns HCT116-DoxR cells. The assay is described as follows: Autophagy induction (CYTO-ID green, flow cytometry). To be noted: 48 h; complexes at IC50, Dox 6 μM, Cis 5 μM, rapamycin 1500 nM. In kind it is cell-based, human. The text has this:
Furthermore, previous studies have shown that complexes containing terpyridine derivatives have the ability to trigger both apoptosis and autophagy cell death mechanisms in cancer cells simultaneously.[38] This convergence of death pathways may arise from an adaptive response of the heterogeneous tumor cell population.[38] In this context, understanding the mechanism by which cells lose viability in the presence of the two Cu(II) complexes with the simultaneous induction of apoptosis and autophagy becomes crucial. Autophagy is a highly conserved catabolic process crucial for maintaining cellular homeostasis but is also associated with type II programmed cell death.[75] It involves intracellular degradation through autophagolysosomes responsible for breaking down luminal content and enabling recycling of cellular components.[76],[77] The assessment of the complexes’ ability to induce autophagy was conducted using flow cytometry, employing the CYTO-ID green detection reagent. This probe emits green fluorescence, marking the autophagic vacuoles within the cell. Higher fluorescence indicates a greater proportion of autophagolysosomes.[78] Three positive controls were used: Dox, Cis, and rapamycin (1500 nM), whose concentration was previously optimized for the HCT116-DoxR cell line in the laboratory.[64] Rapamycin is known to induce autophagy through its mechanistic target, mTOR.
Cell death via autophagy was evaluated using the Autophagy Assay Kit (ab139484; Abcam, Cambridge, United Kingdom), according to the manufacturers’ instructions. HCT116-DoxR cells were seeded at a density of 1 × 10^5 cells/mL in 6-well plates for 24 h, under the same conditions described before. After this incubation period, the culture medium was replaced with a fresh medium containing the copper complexes under evaluation at their IC50 concentration. A 0.1% (v/v) DMSO solution was used as the negative (vehicle) control, and 6 μM Dox and 5 μM Cis were used as positive controls. The cells were incubated again for 48 h. Rapamycin (1500 nM) was also added as a positive control, and it was added 18 h before the end of the 48 h incubation. After this period, the supernatant was discarded, and each well was washed with PBS 1×. Subsequently, cells were detached using TrypLE Express and washed with phenol red-free DMEM medium containing 5% (v/v) FBS. Cells were incubated with Green Stain Solution in phenol red-free DMEM medium containing 5% (v/v) FBS for 30 min at RT. After this period, the samples were washed and then resuspended in Assay Buffer 1×. The samples were analyzed using an Attune Acoustic Focusing Flow Cytometer (Life Technologies, Carlsbad, USA), and the results were analyzed via the Attune Cytometric software.
Background: A flow cytometer gives signals particle by particle.

Where [10] appears, read: 48 h of exposure, MTS, relative IC50, mean + SEM.
Setting [11] is: free ligands, at least two independent assays, read-out: IC50 of ligands HCT116-DoxR.

SMILES strings stand for the structures. Where two headings read alike, the source gives them in different places. Where only a bound is given, the exact number is not on record here.

For the compound `COc1ccc(-c2cc(-c3ccccn3)nc(-c3ccccn3)c2)c2ccccc12.[Cl][Cu][Cl]` [Cu1c], the IC50 (usually the point on the concentration scale where inhibition reaches its midpoint) is 32780 ± 60 nM in assay [1], 950 ± 50 nM in [2] (48 h) and 400 ± 60 nM in assay [3] (48 h). The “SI A2780” value in assay [2] (IC50 fibroblasts / IC50 A2780) was 34.5. The “SI HCT116” value in assay [3] (IC50 fibroblasts / IC50 HCT116) is given as 82.

Take `COc1ccc2cc(-c3cc4[n+]5c(c3)-c3cccc[n+]3[Cu-3]5([Cl])([Cl])[n+]3ccccc3-4)ccc2c1` [Cu1d]: the IC50 came to 310 ± 10 nM in assay [4] (MTS, relative IC50, mean + SEM, read-out: IC50 HCT116-DoxR (2D)); 360 ± 40 nM in assay [5] (setting [10]); 480 ± 80 nM in [6] (setting [10]); 6420 ± 500 nM in assay [7]. For the same compound, the “SI HCT116-DoxR” value in assay [4] (ratio IC50 fibroblasts / IC50 HCT116-DoxR) stood at 20.7. The “SI HCT116” value in assay [5] (ratio IC50 fibroblasts / IC50 HCT116) stood at 17.8. Moreover, in assay [6] (ratio IC50 fibroblasts / IC50 A2780), the “SI A2780” value is recorded as 13.4. With `c1ccc(-c2cc(-c3cccc4ccccc34)cc(-c3ccccn3)n2)nc1` [L1a], the IC50 in assay [4] (setting [11]) is roughly 180 nM. Turning to `c1ccc(-c2cc(-c3ccc4ccccc4c3)cc(-c3ccccn3)n2)nc1` [L1b], in assay [4] (setting [11]), the IC50 amounted to 240 ± 400 nM. Same read-out and setting: then `COc1ccc2cc(-c3cc(-c4ccccn4)nc(-c4ccccn4)c3)ccc2c1` [L1d], with 200 ± 50 nM; and `c1ccc2c(-c3cc(-c4nccs4)nc(-c4nccs4)c3)cccc2c1` [L2a], with greater than 50000 nM. The same measure, in the same setting: then `c1ccc2cc(-c3cc(-c4nccs4)nc(-c4nccs4)c3)ccc2c1` [L2b], with greater than 50000 nM; and `COc1ccc(-c2cc(-c3nccs3)nc(-c3nccs3)c2)c2ccccc12` [L2c], with roughly 11500 nM; and `COc1ccc2cc(-c3cc(-c4nccs4)nc(-c4nccs4)c3)ccc2c1` [L2d], with roughly 14600 nM.

Regarding `CC(C)(C)OO` [TBHP, Tert-butyl hydroperoxide], the IC50 in [8] is 42000 nM. With `CO[C@H]1C[C@@H]2CC[C@@H](C)[C@@](O)(O2)C(=O)C(=O)N2CCCC[C@H]2C(=O)O[C@H]([C@H](C)C[C@@H]2CC[C@@H](O)[C@H](OC)C2)CC(=O)[C@H](C)/C=C(\C)[C@@H](O)[C@@H](OC)C(=O)[C@H](C)C[C@H](C)/C=C/C=C/C=C/1C` [rapamycin, Rapamycin], the “increase in autophagic vesicles compared to 0.1% DMSO control” value in assay [9] is listed as “increase in green fluorescence intensity”.
